In PMC2865816, “Synthesis and Antiviral Studies of Novel N-Sulphonamidomethyl piperazinyl Fluoroquinolones” (Indian Journal of Pharmaceutical Sciences, 2009):
≈ marks a conversion by molar mass, not a printed value. Read-outs that look alike come from different tables or passages of the source.

Key:
[1] = Cytotoxicity against mock-infected MT-4 cells, MTT; assay type: cell-based; conditions: human; mock-infected MT-4 cells, MTT; read-out: CC50, concentration required to reduce the viability of mock-infected MT-4 cells by 50%
Protocol: (§1) Compounds were tested for their inhibitory effects against replication of HIV-1 (IIIB) in MT-4 cells[1011]. The MT-4 cells were grown and maintained in RPMI 1640 DM medium supplemented with 10% (v/v) heat-inactivated fetal calf serum (FCS), 2 mM-glutamine, 0.1% sodium bicarbonate and 20 μg/ml gentamicin (culture medium). Inhibitory effect of test compounds on HIV-1 replications was monitored by inhibition of virus-induced cytopathic effect in MT-4 cells and was estimated by MTT assay. Briefly, 50 μl of HIV-1 (100-300 CCID50) were added to a flat-bottomed microtiter tray with 50 μl of medium containing various concentrations of compounds. MT-4 cells were added at a final concentration of 6×10^5 cells/ml. After 5 d of incubation at 37°, the number of viable cells were determined by the 3-(4,5-dimethylthiazol-2-yl)-2,5-diphenyl tetrazolium bromide (MTT) method. Cytotoxicity of test compounds against mock-infected MT-4 cells was also assessed by the MTT method. AntiHIV activity and cytotoxicity of standard AZT were also performed by a similar method in MT-4 cells.

influenza A (H1N1) = test: microbe, parasite or virus in culture; assay type: cell-based; conditions: strain A(H1N1), MDCK cells; for EC50: Influenza A virus, CPE inhibition, neutral red, read-out: EC50, 50% effective (virus-inhibitory) concentration
HIV-1 (IIIB) = test: Inhibition of HIV-1 (IIIB) induced cytopathic effect in MT-4 cells, MTT; assay type: cell-based; conditions: for EC50: MTT, 5 d, read-out: EC50, concentration achieving 50% protection of MT-4 cells against the cytopathic effect of HIV
influenza B = test: microbe, parasite or virus in culture; assay type: cell-based; conditions: strain B, MDCK cells; for EC50: Influenza B virus, CPE inhibition, neutral red, read-out: EC50, 50% effective (virus-inhibitory) concentration
influenza A (H3N2) = test: microbe, parasite or virus in culture; assay type: cell-based; conditions: for EC50: Influenza A virus, H3N2, MDCK, read-out: EC50, 50% effective (virus-inhibitory) concentration; for Selectivity Index (CC50 divided by EC50): strain A(H3N2), MDCK cells
influenza A (H5N1) = test: microbe, parasite or virus in culture; assay type: cell-based; conditions: for EC50: Influenza A virus, H5N1, MDCK, read-out: EC50, 50% effective (virus-inhibitory) concentration; for Selectivity Index (CC50 divided by EC50): strain A(H5N1), MDCK cells
in vitro = conditions: dog
mock-infected MT-4 cells = test: Cytotoxicity against mock-infected MT-4 cells, MTT; assay type: cell-based
Protocol: as §1

[2] = tested on: influenza A and B viruses; test: microbe, parasite or virus in culture; assay type: cell-based; conditions: MDCK, read-out: concentration inhibiting the replication of influenza A and B viruses
[3] = Human immunodeficiency virus 1, MT4, 120 h

Compound | CC50 at 5 d [1] | EC50 (influenza A (H1N1)) | EC50 (HIV-1 (IIIB); [3]) | EC50 (influenza B) | Selectivity Index (CC50 divided by EC50) (influenza B) | EC50 (influenza A (H3N2)) | EC50 (influenza A (H5N1)) | Selectivity Index (CC50 divided by EC50) (influenza A (H5N1)) | CC50 (in vitro) | Selectivity Index (CC50 divided by EC50) (influenza A (H1N1)) | Selectivity Index (CC50 divided by EC50) (influenza A (H3N2)) | cytostatic activity in MT-4 cells (in words) (mock-infected MT-4 cells; MT-4 cells) | CC50 (mock-infected MT-4 cells; mock-infected MT-4 cells, MTT, read-out: CC50, concentration required to reduce the viability of mock-infected MT-4 cells by 50%) | Max Prot (HIV-1 (IIIB)) | EC50 (HIV-1 (IIIB)) | CC50 at 3 d (in vitro) | EC50 [2]
COc1c(N2CCN(CNc3ccc(S(N)(=O)=O)cc3)CC2)c(F)cc2c(=O)c(C(=O)O)cn(C3CC3)c12 [GF-SA] | 58.7 µM | > 100 µg/mL | > 58.7 µM | 36 µg/mL (≈ 66 µM) | >3 | > 100 µg/mL | 32 µg/mL (≈ 58.7 µM) | >3 | > 100 µg/mL |  |  |  |  |  |  |  | 
O=C(O)c1cn(C2CC2)c2cc(N3CCN(CNc4ccc(S(=O)(=O)Nc5ncccn5)cc4)CC3)c(F)cc2c1=O [CF-SD] | 74.1 µM | 16 µg/mL (≈ 27 µM) | > 74.1 µM | 32 µg/mL (≈ 53.9 µM) | >3 | 41 µg/mL (≈ 69.1 µM) | 33 µg/mL (≈ 55.6 µM) | >3 | > 100 µg/mL | >6.1 |  |  |  |  |  |  | 
CCn1cc(C(=O)O)c(=O)c2cc(F)c(N3CCN(CNc4ccc(S(N)(=O)=O)cc4)CC3)cc21 [NF-SA] | 75.5 µM | > 100 µg/mL | > 75.5 µM | 80 µg/mL (≈ 159 µM) | >1.3 | > 100 µg/mL | > 100 µg/mL |  | > 100 µg/mL |  |  |  |  |  |  |  | 
COc1c(N2CCN(CNc3ccc(S(=O)(=O)Nc4ncccn4)cc3)CC2)c(F)cc2c(=O)c(C(=O)O)cn(C3CC3)c12 [GF-SD] | 70.1 µM | 34 µg/mL (≈ 54.5 µM) | > 70.1 µM | 97 µg/mL (≈ 156 µM) | >1 | 52 µg/mL (≈ 83.4 µM) | > 100 µg/mL |  | > 100 µg/mL | >3 | >1.9 |  |  |  |  |  | 
COc1c(N2CCN(CNc3ccc(S(=O)(=O)Nc4nc(C)cc(C)n4)cc3)CC2)c(F)cc2c(=O)c(C(=O)O)cn(C3CC3)c12 [GF-SDM] | 39.4 µM | 33 µg/mL (≈ 50.6 µM) | > 39.4 µM | 11 µg/mL (≈ 16.9 µM) | >9 | 38 µg/mL (≈ 58.3 µM) | 19 µg/mL (≈ 29.2 µM) | >5 | > 100 µg/mL | >3.1 | >2.6 | marked cytostatic activity |  |  |  |  | 
Cc1cn([C@H]2C[C@H](N=[N+]=[N-])[C@@H](CO)O2)c(=O)[nH]c1=O [AZT, reference compound] |  |  |  |  |  |  |  |  |  |  |  |  | 64.5 µM | 106 | 0.0064 µM |  | 
CCn1cc(C(=O)O)c(=O)c2cc(F)c(N3CCN(CNc4ccc(S(=O)(=O)Nc5ncccn5)cc4)CC3)cc21 [NF-SD] | 66.8 µM | > 100 µg/mL | > 66.8 µM | > 32 µg/mL |  | > 100 µg/mL | > 32 µg/mL |  |  |  |  |  |  |  |  | 32 µg/mL (≈ 55 µM) | 
Cc1cc(C)nc(NS(=O)(=O)c2ccc(NCN3CCN(c4cc5c(cc4F)c(=O)c(C(=O)O)cn5C4CC4)CC3)cc2)n1 [CF-SDM] | 70.8 µM | 18 µg/mL (≈ 29 µM) | > 70.8 µM | 53 µg/mL (≈ 85.3 µM) | >2 | 30 µg/mL (≈ 48.3 µM) | > 100 µg/mL |  | > 100 µg/mL | >5.6 | >3.3 |  |  |  |  |  | 
NC(=O)c1ncn([C@@H]2O[C@H](CO)[C@@H](O)[C@H]2O)n1 [Ribavirin, ribavirin, reference compound] |  | 3.7 µg/mL (≈ 15.2 µM) |  | 5.5 µg/mL (≈ 22.5 µM) | >18 | 5.9 µg/mL (≈ 24.2 µM) | 4.3 µg/mL (≈ 17.6 µM) | >23 | > 100 µg/mL | >27 | >17 |  |  |  |  |  | 3.7 to 5.9 µg/mL (≈ 15.2 to 24.2 µM)
CCn1cc(C(=O)O)c(=O)c2cc(F)c(N3CCN(CNc4ccc(S(=O)(=O)Nc5nc(C)cc(C)n5)cc4)CC3)cc21 [NF-SDM] | 56.3 µM |  | > 56.3 µM |  |  |  |  |  |  |  |  |  |  |  |  |  | 
